This note sets out measurements from US20240327364A1, “THERAPEUTIC TARGETING OF GPR68 TO INDUCE FERROPTOSIS” (University Of Maryland, Baltimore, priority 2023, published 2024).

SMILES strings stand for the structures.

In one assay the target is T1, NOP (Homo sapiens, UniProt P41146).
T1 construct: host or cells: Chem-1 cells expressing Gα15
Nature of the assay: GPCR Profiler. The assay is classed as cell-based.

The next assay addresses T2, HPK1 (Homo sapiens, UniProt Q92918).
T2 construct: purchased DiscoveRx (Fremont, CA)
The experiment in a line: KinomeScan. It is filed as binding. Conditions: read-out: % Control.

The target of another assay is T3, FGFR4 (Homo sapiens, UniProt P22455).
T3 construct: purchased DiscoveRx (Fremont, CA)
The experiment in a line: KinomeScan. The assay is classed as binding. Conditions: read-out: % Control.

For the next assay, the target named is T4, EPHA4 (Homo sapiens, UniProt P54764).
T4 construct: purchased DiscoveRx (Fremont, CA)
The experiment in a line: KinomeScan. It is filed as binding. To be noted: read-out: % Control.

For a further assay, the target named is T5, IKK-beta (Homo sapiens, UniProt O14920).
T5 construct: purchased DiscoveRx (Fremont, CA)
T5 sequence (O14920 whole entry): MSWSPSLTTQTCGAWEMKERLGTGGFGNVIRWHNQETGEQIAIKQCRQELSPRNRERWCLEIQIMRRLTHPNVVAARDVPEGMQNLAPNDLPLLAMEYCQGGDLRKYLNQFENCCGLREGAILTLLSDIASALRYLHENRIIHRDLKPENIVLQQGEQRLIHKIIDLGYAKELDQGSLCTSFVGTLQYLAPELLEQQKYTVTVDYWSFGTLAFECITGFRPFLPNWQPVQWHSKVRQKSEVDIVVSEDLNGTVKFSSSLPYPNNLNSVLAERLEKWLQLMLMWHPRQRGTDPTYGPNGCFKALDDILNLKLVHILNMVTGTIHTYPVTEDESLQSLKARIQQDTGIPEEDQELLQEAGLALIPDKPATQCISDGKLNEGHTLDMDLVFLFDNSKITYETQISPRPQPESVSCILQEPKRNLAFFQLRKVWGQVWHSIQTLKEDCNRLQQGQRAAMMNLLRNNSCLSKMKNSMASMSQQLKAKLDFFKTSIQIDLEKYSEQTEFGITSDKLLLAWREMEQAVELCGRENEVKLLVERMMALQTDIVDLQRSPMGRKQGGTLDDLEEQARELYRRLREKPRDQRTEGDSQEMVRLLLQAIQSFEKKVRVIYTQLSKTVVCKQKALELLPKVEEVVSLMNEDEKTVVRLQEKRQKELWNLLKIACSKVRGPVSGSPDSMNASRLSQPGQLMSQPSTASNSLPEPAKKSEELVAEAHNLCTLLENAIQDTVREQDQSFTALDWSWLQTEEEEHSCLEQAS
The experiment in a line: KinomeScan. It is filed as binding. To be noted: read-out: % Control.

In a further assay the target is T6, MST1R (Homo sapiens, UniProt Q04912).
T6 construct: purchased DiscoveRx
The experiment in a line: KinomeScan. The assay is classed as binding. Conditions: read-out: % Control.

The target in a further assay is T7, KIT(A829P) (Homo sapiens, UniProt P10721, A829P).
T7 construct: purchased DiscoveRx
Nature of the assay: KinomeScan. The assay is classed as binding. To be noted: read-out: % Control.

A further assay has as its target T8, EP1 (Homo sapiens, UniProt P34995).
T8 construct: host or cells: Chem-1 cells expressing Gα15
The experiment in a line: GPCR Profiler. The assay is classed as cell-based.

A further assay concerns the target T9, LIMK1 (Homo sapiens, UniProt P53667).
T9 construct: purchased DiscoveRx
Nature of the assay: KinomeScan. It is filed as binding. Conditions: read-out: % Control.

A further assay deals with T10, AAK1 (Homo sapiens, UniProt Q2M2I8).
T10 construct: purchased DiscoveRx
T10 sequence (Q2M2I8 46-315 limits assumed): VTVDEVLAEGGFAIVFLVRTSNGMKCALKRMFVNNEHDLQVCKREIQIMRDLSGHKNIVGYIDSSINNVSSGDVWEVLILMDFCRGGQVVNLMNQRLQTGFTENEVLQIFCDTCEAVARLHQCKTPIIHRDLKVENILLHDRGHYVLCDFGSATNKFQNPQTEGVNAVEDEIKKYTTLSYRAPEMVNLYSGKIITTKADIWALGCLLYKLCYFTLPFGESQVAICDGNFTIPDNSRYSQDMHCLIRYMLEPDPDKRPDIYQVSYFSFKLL
Nature of the assay: KinomeScan. It is filed as binding. To be noted: read-out: % Control.

The next assay concerns the target T11, IGF1R (Homo sapiens, UniProt P08069).
T11 construct: purchased DiscoveRx (Fremont, CA)
Nature of the assay: KinomeScan. It is filed as binding. Conditions: read-out: % Control.

Another assay addresses T12, PTH2 (Homo sapiens, UniProt P49190).
T12 construct: host or cells: Chem-1 cells with Gα15
Nature of the assay: GPCR Profiler. The assay is classed as cell-based.

In the next assay the test system is Trypsin activated PARS. The experiment in a line: GPCR Profiler. The assay is classed as cell-based.
The next assay deals with T13, PIK3CA(E542K) (Homo sapiens, UniProt P42336, E542K).
T13 construct: purchased DiscoveRx (Fremont, CA)
The experiment in a line: KinomeScan. It is filed as binding. Conditions: read-out: % Control.

In assay [1] the target is T14, JAK1(JH1domain-catalytic) (Homo sapiens, UniProt P23458).
T14 construct: JAK1(JH1domain-catalytic); purchased DiscoveRx (Fremont, CA)
T14 sequence (P23458 875-1153 limits assumed): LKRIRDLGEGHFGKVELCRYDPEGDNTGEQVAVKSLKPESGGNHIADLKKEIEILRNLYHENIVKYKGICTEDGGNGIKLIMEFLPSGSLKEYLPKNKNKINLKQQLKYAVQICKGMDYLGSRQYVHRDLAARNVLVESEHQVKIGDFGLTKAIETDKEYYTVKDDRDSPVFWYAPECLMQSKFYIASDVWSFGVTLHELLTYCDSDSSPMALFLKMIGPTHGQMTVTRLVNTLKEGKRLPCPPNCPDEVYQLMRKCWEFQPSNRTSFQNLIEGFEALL
The experiment in a line: KinomeScan. Conditions: read-out: % Control. It is filed as binding.

In a further assay the target is T15, RET(V804L) (Homo sapiens, UniProt P07949, V804L).
T15 construct: purchased DiscoveRx (Fremont, CA)
T15 sequence (P07949 29-1114 V804L): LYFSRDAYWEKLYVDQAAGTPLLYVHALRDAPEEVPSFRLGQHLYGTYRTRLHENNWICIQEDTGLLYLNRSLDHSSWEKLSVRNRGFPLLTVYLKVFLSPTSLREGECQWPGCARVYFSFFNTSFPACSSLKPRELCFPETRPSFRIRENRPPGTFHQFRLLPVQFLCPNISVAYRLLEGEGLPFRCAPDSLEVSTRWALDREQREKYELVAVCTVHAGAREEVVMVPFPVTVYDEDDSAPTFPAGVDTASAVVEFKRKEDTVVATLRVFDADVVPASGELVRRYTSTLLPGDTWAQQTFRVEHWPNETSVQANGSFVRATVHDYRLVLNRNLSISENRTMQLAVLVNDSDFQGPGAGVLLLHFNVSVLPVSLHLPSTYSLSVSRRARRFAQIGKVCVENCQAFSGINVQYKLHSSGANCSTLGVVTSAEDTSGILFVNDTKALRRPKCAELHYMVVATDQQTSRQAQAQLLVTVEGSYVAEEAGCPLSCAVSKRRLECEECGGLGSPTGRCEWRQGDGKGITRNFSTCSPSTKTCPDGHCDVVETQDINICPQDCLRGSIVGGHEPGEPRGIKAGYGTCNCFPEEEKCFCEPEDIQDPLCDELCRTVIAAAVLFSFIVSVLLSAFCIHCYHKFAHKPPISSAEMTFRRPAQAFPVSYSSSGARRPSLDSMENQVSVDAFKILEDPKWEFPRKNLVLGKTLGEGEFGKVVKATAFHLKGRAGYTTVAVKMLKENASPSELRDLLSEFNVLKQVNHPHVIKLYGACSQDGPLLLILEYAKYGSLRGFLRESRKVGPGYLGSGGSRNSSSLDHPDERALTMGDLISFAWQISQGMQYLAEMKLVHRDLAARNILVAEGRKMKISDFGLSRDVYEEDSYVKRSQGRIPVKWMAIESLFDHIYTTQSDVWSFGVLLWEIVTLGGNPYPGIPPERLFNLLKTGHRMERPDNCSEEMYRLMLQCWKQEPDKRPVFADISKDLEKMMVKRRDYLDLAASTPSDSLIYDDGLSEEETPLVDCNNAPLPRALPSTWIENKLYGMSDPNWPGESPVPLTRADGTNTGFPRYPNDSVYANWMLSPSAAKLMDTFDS
The experiment in a line: KinomeScan. It is filed as binding. To be noted: read-out: % Control.

In a further assay the target is T16, MEK6 (Homo sapiens, UniProt P52564).
T16 construct: purchased DiscoveRx (Fremont, CA)
T16 sequence (P52564 whole entry): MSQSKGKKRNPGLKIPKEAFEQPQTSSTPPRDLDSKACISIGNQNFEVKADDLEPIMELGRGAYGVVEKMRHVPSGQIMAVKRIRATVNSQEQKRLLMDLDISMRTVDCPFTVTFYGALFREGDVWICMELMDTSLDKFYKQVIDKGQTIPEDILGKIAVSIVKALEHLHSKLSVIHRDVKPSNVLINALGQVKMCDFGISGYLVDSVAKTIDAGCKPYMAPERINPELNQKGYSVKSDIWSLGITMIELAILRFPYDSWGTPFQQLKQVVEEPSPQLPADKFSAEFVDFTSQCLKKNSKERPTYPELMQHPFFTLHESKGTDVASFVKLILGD
Nature of the assay: KinomeScan. To be noted: read-out: % Control. It is filed as binding.

Another assay deals with T17, LOK (Homo sapiens, UniProt O94804).
T17 construct: purchased DiscoveRx
The experiment in a line: KinomeScan. The assay is classed as binding. To be noted: read-out: % Control.

The next assay relates to panel of 442 kinases. The experiment in a line: KinomeScan panel (summary). The assay is classed as binding. Conditions: 10 uM.
For assay [2], the target named is T18, TYK2(JH1domain-catalytic) (Homo sapiens, UniProt P29597).
T18 construct: TYK2(JH1domain-catalytic); purchased DiscoveRx
T18 sequence (P29597 897-1176 limits assumed): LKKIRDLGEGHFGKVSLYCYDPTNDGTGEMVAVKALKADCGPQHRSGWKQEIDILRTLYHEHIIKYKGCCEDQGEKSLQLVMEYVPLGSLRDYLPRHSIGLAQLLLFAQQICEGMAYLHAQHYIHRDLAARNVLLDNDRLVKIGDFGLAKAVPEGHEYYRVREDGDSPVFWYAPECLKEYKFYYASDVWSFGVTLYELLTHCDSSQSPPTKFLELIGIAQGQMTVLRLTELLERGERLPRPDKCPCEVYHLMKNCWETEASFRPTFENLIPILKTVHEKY
The experiment in a line: KinomeScan. It is filed as binding. To be noted: read-out: % Control.

A further assay relates to PANC02. Nature of the assay: Scratch migration. It is filed as cell-based. To be noted: 10 μM OGM2, 24 hours. The protocol: In a second study. PANC02 pancreatic cells plated and grown to confluence. Using a P200 tip, cells were denuded and allowed to migrate for 24 hours in DMSO or 10 μM OGM2 and imaged.
The subject of another assay is THP-1. Nature of the assay: Cell Titer-Glo viability, Acute monocytic leukemia. It is filed as cell-based. To be noted: 72 hours. The method, then: (§1) OGM2 kills wide variety of cancer cell types. Cell sensitivity can be classified in to Very Sensitive (LC50<2 μM), Sensitive (LC50=2 to 10 μM), Mildly Sensitive (LC50>10 μM), and Refractory (no killing at 10 μM). The listed established cell were incubated with OGM2 at 2 μM or 10 μM for 72 hours under standard cell culture conditions, and relative cell number was assessed using Cell Titer-Glo Luminescent Cell Viability Assay (Promega™) following the manufacturer's instructions. Luminescence was determined using a Cytation 5 reader and Gen5 software package (BioTek™).
(§2) Cancer cells, which are very sensitive to killing by OGM2 (LCs <2 μM), with reported mRNA expression of GPR68 and the related proton sensing receptor GPR4. LC50's (concentrations causing 50% lethality) were determined using CellTiter-Glo (Promega™, G7570). Cells were plated in 12-well plates (CELLTREAT Scientific Products, 229112) in 1 ml of DMEM with high glucose, GlutaMAX, HEPES, or RPMI 1640 with Penicillin-Streptomycin (ThermoFisher™, 10564029, 11875119 and 15140122) and 10% FBS. Cells were incubated overnight at 37° C. in 5% CO2. Then 1 mL of fresh media was added with DMSO, OGM, or positive control (Erastin; APExBIO Technology, LLC, B1524) and cells incubated for 3 days. On the third day, all media was removed, cells were rinsed with 1×PBS, PBS was removed, and 200 μL of 1× Passive Lysis Buffer (Promega™, E1941) was added to each well. […]. Subsequently, 20 μL of lysate was added to 100 μL CellTiter-Glo™ reagent on a LUMITRAC 200 plate (Greiner™ bio-one, 82050-726). Plates were briefly spun down and read on a GloMax-Multi Detection System (Promega™).
(§3) The cells listed in the tables above were incubated with OGM2 at 2 μM or 10 μM for 72 hours under standard cell culture conditions, and relative cell number was assessed using Cell Titer-Glo Luminescent Cell Viability Assay (Promega™) following the manufacturer's instructions. Luminescence was determined using a Cytation 5 reader and Gen5 software package (BioTek™). RNA expression of GPR68 and GPR4 in the corresponding cancer cell lines are listed, according to the publicly available The Human Protein Atlas version 22.0 and Ensembl version 103.38 (see proteinatlas.org). The consensus normalized expression value (“nTPM”=normalize transcript per million) was calculated as the maximum nTPM value for each gene in the two data sources.
A general note: Cellular ATP, detected with luciferase, serves as a proxy for viable cell number.

Another assay concerns MOLM-14. Nature of the assay: Cell Titer-Glo viability, Acute monocytic leukemia. The assay is classed as cell-based. The method, then:
as §1, §2, §3

T1 sequence (P41146 whole entry): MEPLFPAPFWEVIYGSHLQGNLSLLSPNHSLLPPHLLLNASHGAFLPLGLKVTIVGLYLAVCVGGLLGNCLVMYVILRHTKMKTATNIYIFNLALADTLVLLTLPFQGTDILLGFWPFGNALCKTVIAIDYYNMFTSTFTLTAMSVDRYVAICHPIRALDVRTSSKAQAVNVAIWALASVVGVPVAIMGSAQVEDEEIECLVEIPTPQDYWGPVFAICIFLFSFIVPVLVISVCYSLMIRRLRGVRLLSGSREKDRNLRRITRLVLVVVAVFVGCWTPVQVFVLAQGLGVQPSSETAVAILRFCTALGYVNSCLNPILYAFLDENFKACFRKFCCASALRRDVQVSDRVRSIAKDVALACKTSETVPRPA
T12 sequence (P49190 25-550): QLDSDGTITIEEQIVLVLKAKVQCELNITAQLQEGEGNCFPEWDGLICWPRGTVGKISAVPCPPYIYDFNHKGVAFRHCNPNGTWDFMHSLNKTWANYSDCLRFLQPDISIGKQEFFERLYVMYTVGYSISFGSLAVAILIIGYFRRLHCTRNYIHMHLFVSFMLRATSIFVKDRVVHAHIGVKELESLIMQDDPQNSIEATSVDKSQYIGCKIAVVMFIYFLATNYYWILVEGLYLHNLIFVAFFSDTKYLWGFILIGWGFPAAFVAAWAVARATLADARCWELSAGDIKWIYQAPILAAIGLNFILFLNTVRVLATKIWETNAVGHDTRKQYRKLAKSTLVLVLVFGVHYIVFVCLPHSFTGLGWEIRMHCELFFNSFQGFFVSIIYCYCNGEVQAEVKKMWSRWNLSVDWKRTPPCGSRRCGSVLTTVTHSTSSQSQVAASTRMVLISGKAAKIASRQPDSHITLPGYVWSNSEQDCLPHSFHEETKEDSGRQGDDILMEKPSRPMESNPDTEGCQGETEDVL
T8 sequence (P34995 whole entry): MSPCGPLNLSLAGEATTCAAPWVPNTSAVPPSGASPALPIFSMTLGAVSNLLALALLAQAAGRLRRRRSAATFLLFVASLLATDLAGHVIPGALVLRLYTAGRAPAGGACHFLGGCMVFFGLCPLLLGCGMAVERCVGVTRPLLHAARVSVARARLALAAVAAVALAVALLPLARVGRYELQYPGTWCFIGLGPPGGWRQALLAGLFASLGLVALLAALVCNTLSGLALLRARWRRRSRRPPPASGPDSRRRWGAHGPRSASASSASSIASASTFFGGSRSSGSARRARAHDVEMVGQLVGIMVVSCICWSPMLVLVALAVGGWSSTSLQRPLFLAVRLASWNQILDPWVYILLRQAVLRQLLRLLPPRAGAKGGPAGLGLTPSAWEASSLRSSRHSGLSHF
T9 sequence (P53667 whole entry): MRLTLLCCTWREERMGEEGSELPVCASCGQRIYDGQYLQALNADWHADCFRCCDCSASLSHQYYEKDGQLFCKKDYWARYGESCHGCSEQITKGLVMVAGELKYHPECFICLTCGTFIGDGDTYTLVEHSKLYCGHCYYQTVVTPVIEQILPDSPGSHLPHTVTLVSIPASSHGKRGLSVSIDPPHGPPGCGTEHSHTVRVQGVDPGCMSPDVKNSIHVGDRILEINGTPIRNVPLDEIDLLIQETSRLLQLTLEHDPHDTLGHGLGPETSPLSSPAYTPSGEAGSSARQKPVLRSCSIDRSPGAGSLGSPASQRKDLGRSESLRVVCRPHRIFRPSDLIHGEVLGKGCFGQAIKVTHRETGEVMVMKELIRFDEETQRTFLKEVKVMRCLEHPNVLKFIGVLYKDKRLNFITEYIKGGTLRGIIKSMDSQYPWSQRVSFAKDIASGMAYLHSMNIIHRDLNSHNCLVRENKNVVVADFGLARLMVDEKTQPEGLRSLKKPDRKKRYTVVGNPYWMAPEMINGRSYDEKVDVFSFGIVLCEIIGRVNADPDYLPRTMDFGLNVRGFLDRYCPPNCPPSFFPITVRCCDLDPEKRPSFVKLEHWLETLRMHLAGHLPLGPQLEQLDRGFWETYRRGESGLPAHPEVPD

In the case of `CCc1ccc2c(c1)C1(NN=C(c3cccc4ccccc34)S1)C(=O)N2` (centres unmarked) [OGM1, 5-ethyl-5′-naphthalen-1-ylspiro[1H-indole-3,2′-3H-1,3,4-thiadiazole]-2-one], the Antagonism on NOP (10 uM) was −1.9; at EP1 (10 uM) it was −6; on PTH2 (10 uM), −19.2; with Trypsin activated PARS (10 uM) it was 18.2. For the same compound, the Agonism at NOP (12.5 uM) came to 0.2; at EP1 (12.5 uM) it was 0.2; at PTH2 (12.5 uM), 1.1; in the assay on Trypsin activated PARS (12.5 uM), 0. The remaining binding at 10 µM was 100% at HPK1; 100% on FGFR4; 100% on EPHA4; 92% at IKK-beta; 86% at MST1R; 72% at KIT(A829P). Further, the remaining binding at 10 µM at LIMK1 amounted to 100%; at AAK1, 100%; at IGF1R, 84%; on PIK3CA(E542K), 73%; in assay [1], 59%; on RET(V804L) it was 90%. Moreover, the values for the remaining binding at 10 µM (on MEK6; on LOK; in assay [2]) were 76%, 100% and 77%, respectively. Further, the “interaction with kinase domains” value in the assay on panel of 442 kinases is listed as “did not physically interact with the kinase domain of any kinase”.

`CCc1ccc2c(c1)C1(NN=C(c3ccccc3)S1)C(=O)N2` (centres unmarked) [OGM2]: the migration entry in the assay with PANC02 was “significantly reduced migration”. The “% Survival 2 μM OGM” value with THP-1 turned out to be 33.0%; with MOLM-14 (72 hours), 65.3%. Also, the “% Survival 10 μM OGM” value in the assay on THP-1 turned out to be 9.4%; in the assay on MOLM-14 (72 hours) it was 15.3%. Also, the CC50 with THP-1 (Homo sapiens, THP-1, read-out: LC50 (the source's name)) was below 2000 nM; in the assay with MOLM-14 (Homo sapiens, MOLM-14, 72 hours, read-out: LC50 (the source's name)), 2000 to 10000 nM. Moreover, the Class entry in the assay on MOLM-14 was “Sensitive (Sensitive (LC50=2 to 10 μM))”.
